The source of these data is patent US20250353891A1 (MEDIMMUNE LIMITED, priority 2022, published 2025).

As a reminder, the pEC50 is the negative decadic logarithm of the EC50, by convention in mol/L.

pEC50: −log10 of the molar value. Like-named read-outs stand apart in the source and are kept apart here. Starred links: 1 amine or outer side, 2 acyl side, 3 side chain; linkers in the order of their positions; H or OH if unused. Non-standard residues stand in square brackets, D forms with d. Residues, ends and D or L forms follow the SMILES beside them. Groups on a side chain read outwards from the residue. *: point of attachment. C20 diacid = O=C(O)CCCCCCCCCCCCCCCCCCC(=O)*; C18 diacid = O=C(O)CCCCCCCCCCCCCCCCC(=O)*; γGlu = O=C(O)[C@H](CCC(=O)[*:2])N[*:1]; Stearoyl = CCCCCCCCCCCCCCCCCC(=O)*; Palmitoyl = CCCCCCCCCCCCCCCC(=O)*; αMeF = C[C@](N)(Cc1ccccc1)C(=O)O; PEG4 = NCCOCCOCCOCCOCCC(=O)O; PEG2 = NCCOCCOCCC(=O)O; AEEA = NCCOCCOCC(=O)O; Aib = CC(C)(N)C(=O)O

Test [1] addresses human glucagon receptor (hGCGR) (Homo sapiens, UniProt P47871). Briefly: cAMP production (HTRF) in CHO cells expressing hGCGR. The test is classed as cell-based. The arrangement: expressed in transfected cells. Conditions: cAMP in CHO hGCGR cells, geometric mean, read-out: hGluc-R EC50. The method in brief: (§1)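 Cells were resuspended in assay buffer at batch-optimized density, typically 1×10^5 cells/mL for hGLP-1R and 2×10^5 cells/mL for hGCGR. After 30 min incubation at room temperature with compound, cAMP was measured by two-step HTRF. EC50 values came from 4-parameter logistic fits of % Delta F.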

Test [2] concerns the target human GLP-1 receptor (hGLP-1R) (Homo sapiens, UniProt P43220). Briefly: cAMP production (HTRF) in CHO cells expressing hGLP-1R. It is filed as cell-based. More on the design: expressed in transfected cells. The conditions noted are these: for pEC50: cAMP in CHO hGLP-1R cells, geometric mean, read-out: hGLP-1R EC50; for % Relative Potency Ratio: % GLP-1R activity relative to GLP-1 / % GlucR activity relative to glucagon. The method in brief: as §1
For orientation: Cyclic AMP is a second messenger, typically raised through Gs and lowered through Gi signalling.

The mark [3] stands for this setting: Table 6, peptides modified at position 17.
The mark [4] stands for this setting: Table 7, peptides modified at position 20.

Sequence of human glucagon receptor (hGCGR) (P47871 26-477): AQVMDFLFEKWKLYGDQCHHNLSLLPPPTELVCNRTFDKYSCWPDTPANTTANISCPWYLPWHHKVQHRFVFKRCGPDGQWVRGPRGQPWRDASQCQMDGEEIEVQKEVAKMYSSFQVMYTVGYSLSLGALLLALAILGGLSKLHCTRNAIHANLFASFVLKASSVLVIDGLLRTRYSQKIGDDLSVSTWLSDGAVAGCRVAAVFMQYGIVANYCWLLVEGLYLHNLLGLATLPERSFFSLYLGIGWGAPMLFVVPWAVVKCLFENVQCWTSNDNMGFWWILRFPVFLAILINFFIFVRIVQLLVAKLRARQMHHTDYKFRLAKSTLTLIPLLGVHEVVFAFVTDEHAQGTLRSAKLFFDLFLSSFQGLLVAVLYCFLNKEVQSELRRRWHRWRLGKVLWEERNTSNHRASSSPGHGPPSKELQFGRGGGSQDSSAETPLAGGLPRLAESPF
Sequence of human GLP-1 receptor (hGLP-1R) (P43220 24-463): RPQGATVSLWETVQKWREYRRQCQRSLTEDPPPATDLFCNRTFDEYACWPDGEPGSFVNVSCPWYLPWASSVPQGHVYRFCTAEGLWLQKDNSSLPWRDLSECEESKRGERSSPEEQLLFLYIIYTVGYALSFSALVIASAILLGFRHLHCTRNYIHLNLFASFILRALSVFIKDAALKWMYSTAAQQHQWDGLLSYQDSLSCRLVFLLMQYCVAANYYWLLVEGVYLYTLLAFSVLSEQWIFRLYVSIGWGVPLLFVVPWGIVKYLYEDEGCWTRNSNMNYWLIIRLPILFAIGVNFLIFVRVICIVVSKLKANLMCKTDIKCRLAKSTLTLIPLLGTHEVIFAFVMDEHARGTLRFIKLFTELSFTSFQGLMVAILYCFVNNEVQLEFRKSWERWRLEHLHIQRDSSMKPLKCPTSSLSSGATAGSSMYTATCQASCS

Take `CC(C)C[C@H](NC(=O)[C@H](Cc1c[nH]c2ccccc12)NC(=O)[C@H](CCCNC(=N)N)NC(=O)[C@@H](NC(=O)[C@H](Cc1ccccc1)NC(=O)[C@H](CC(=O)O)NC(=O)[C@H](CCC(N)=O)NC(=O)[C@H](C)NC(=O)[C@H](CCCNC(=N)N)NC(=O)[C@H](CCCCNC(=O)COCCOCCNC(=O)COCCOCCNC(=O)CC[C@H](NC(=O)CCCCCCCCCCCCCCCCCCC(=O)O)C(=O)O)NC(=O)[C@H](CCCNC(=N)N)NC(=O)[C@H](CC(=O)O)NC(=O)[C@H](CC(C)C)NC(=O)[C@](C)(Cc1ccccc1)NC(=O)[C@H](CCCCN)NC(=O)[C@H](CO)NC(=O)[C@@H](NC(=O)[C@H](CC(=O)O)NC(=O)[C@H](CO)NC(=O)[C@@H](NC(=O)[C@H](Cc1ccccc1)NC(=O)[C@@H](NC(=O)CNC(=O)[C@H](CCC(N)=O)NC(=O)C(C)(C)NC(=O)[C@@H](N)Cc1c[nH]cn1)[C@@H](C)O)[C@@H](C)O)C(C)C)C(C)C)C(=O)N[C@H](C(=O)NC(C)(C)C(=O)N[C@@H](CCC(=O)O)C(N)=O)C(C)C` [Peptide 437] (H-H[Aib]QGTFTSDVSK[αMeF]LDRK([AEEA-AEEA-γGlu-C20 diacid])RAQDFVRWLV[Aib]E-NH2): the pEC50 in test [1] (setting [3]) was 10.01; in test [2] (setting [3]), 10.57. The “% Relative Potency Ratio” value in test [2] (Table 6) is 7.1.

On to `CC(C)C[C@H](NC(=O)[C@H](Cc1c[nH]c2ccccc12)NC(=O)[C@H](CCCNC(=N)N)NC(=O)[C@@H](NC(=O)[C@H](Cc1ccccc1)NC(=O)[C@H](CC(=O)O)NC(=O)[C@H](CCC(N)=O)NC(=O)[C@H](C)NC(=O)[C@H](CCCNC(=N)N)NC(=O)[C@H](CCCCNC(=O)COCCOCCNC(=O)COCCOCCNC(=O)CC[C@H](NC(=O)CCCCCCCCCCCCCCCCC(=O)O)C(=O)O)NC(=O)[C@H](CO)NC(=O)[C@H](CC(=O)O)NC(=O)[C@H](CC(C)C)NC(=O)[C@](C)(Cc1ccccc1)NC(=O)[C@H](CCCCN)NC(=O)[C@H](CO)NC(=O)[C@@H](NC(=O)[C@H](CC(=O)O)NC(=O)[C@H](CO)NC(=O)[C@@H](NC(=O)[C@H](Cc1ccccc1)NC(=O)[C@@H](NC(=O)CNC(=O)[C@H](CCC(N)=O)NC(=O)C(C)(C)NC(=O)[C@@H](N)Cc1c[nH]cn1)[C@@H](C)O)[C@@H](C)O)C(C)C)C(C)C)C(=O)N[C@@H](CC(C)C)C(=O)NC(C)(C)C(=O)N[C@H](C(=O)O)[C@@H](C)O` [Peptide 28] (H-H[Aib]QGTFTSDVSK[αMeF]LDSK([AEEA-AEEA-γGlu-C18 diacid])RAQDFVRWLL[Aib]T-OH), for which the pEC50 in test [1] (setting [3]) was 9.59; in test [2] (setting [3]) it was 9.89. Also, the “% Relative Potency Ratio” value in test [2] (Table 6) was found to be 4.0.

Turning to `CCCCCCCCCCCCCCCCCC(=O)N[C@@H](CCC(=O)N[C@@H](CCC(=O)NCCOCCOCCC(=O)NCCOCCOCCC(=O)NCCCC[C@H](NC(=O)[C@H](CO)NC(=O)[C@H](CC(=O)O)NC(=O)[C@H](CC(C)C)NC(=O)C(C)(C)NC(=O)[C@H](CCCCN)NC(=O)[C@H](CO)NC(=O)[C@@H](NC(=O)[C@H](CC(=O)O)NC(=O)[C@H](CO)NC(=O)[C@@H](NC(=O)[C@](C)(Cc1ccccc1)NC(=O)[C@H](CO)NC(=O)CNC(=O)[C@H](CCC(N)=O)NC(=O)[C@H](CO)NC(=O)[C@@H](N)Cc1c[nH]cn1)[C@@H](C)O)C(C)C)C(=O)N[C@@H](C)C(=O)N[C@@H](C)C(=O)N[C@@H](CCC(N)=O)C(=O)N[C@@H](CC(=O)O)C(=O)N[C@@](C)(Cc1ccccc1)C(=O)N[C@H](C(=O)N[C@@H](CCC(N)=O)C(=O)NC(C)(C)C(=O)N[C@@H](CC(C)C)C(=O)N[C@@H](C)C(=O)N[C@@H](CC(N)=O)C(=O)N[C@H](C(N)=O)[C@@H](C)O)C(C)C)C(=O)O)C(=O)O` [Peptide 95] (H-HSQGS[αMeF]TSDVSK[Aib]LDSK([PEG2-PEG2-γGlu-γGlu-Stearoyl])AAQD[αMeF]VQ[Aib]LANT-NH2; N-terminus assumed), in test [1] (setting [3]), the pEC50 is 10.90. Also, the “% Relative Potency Ratio” value in test [2] (Table 6) stood at 40.6.

Turning to `CC(C)C[C@H](NC(=O)[C@H](Cc1c[nH]c2ccccc12)NC(=O)[C@H](C)NC(=O)[C@@H](NC(=O)[C@H](Cc1ccccc1)NC(=O)[C@H](CC(=O)O)NC(=O)[C@H](CCC(N)=O)NC(=O)[C@H](C)NC(=O)[C@H](CCCNC(=N)N)NC(=O)[C@H](CCCCNC(=O)COCCOCCNC(=O)COCCOCCNC(=O)CC[C@H](NC(=O)CCCCCCCCCCCCCCCCC(=O)O)C(=O)O)NC(=O)[C@@H](NC(=O)[C@H](CC(=O)O)NC(=O)[C@H](CC(C)C)NC(=O)[C@](C)(Cc1ccccc1)NC(=O)[C@H](CCCCN)NC(=O)[C@H](CO)NC(=O)[C@@H](NC(=O)[C@H](CC(=O)O)NC(=O)[C@H](CO)NC(=O)[C@@H](NC(=O)[C@H](Cc1ccccc1)NC(=O)[C@@H](NC(=O)CNC(=O)[C@H](CCC(N)=O)NC(=O)C(C)(C)NC(=O)[C@@H](N)Cc1c[nH]cn1)[C@@H](C)O)[C@@H](C)O)C(C)C)[C@@H](C)O)C(C)C)C(=O)N[C@@H](CCC(=O)O)C(=O)N[C@@H](C)C(=O)NCC(=O)NCC(=O)O` [Peptide 411] (H-H[Aib]QGTFTSDVSK[αMeF]LDTK([AEEA-AEEA-γGlu-C18 diacid])RAQDFVAWLEAGG-OH; N-terminus assumed), the pEC50 in test [1] (setting [3]) is 9.42; in test [2] (setting [3]), 10.01. In addition, the “% Relative Potency Ratio” value in test [2] (Table 6) came to 7.6.

`CC(C)C[C@H](NC(=O)[C@H](Cc1c[nH]c2ccccc12)NC(=O)[C@H](CCCNC(=N)N)NC(=O)[C@@H](NC(=O)[C@H](Cc1ccccc1)NC(=O)[C@H](CC(=O)O)NC(=O)[C@H](CCC(N)=O)NC(=O)[C@H](C)NC(=O)[C@H](CCCNC(=N)N)NC(=O)[C@H](CCCCNC(=O)COCCOCCNC(=O)COCCOCCNC(=O)CC[C@H](NC(=O)CCCCCCCCCCCCCCCCC(=O)O)C(=O)O)NC(=O)[C@H](CO)NC(=O)[C@H](CC(=O)O)NC(=O)[C@H](CC(C)C)NC(=O)[C@](C)(Cc1ccccc1)NC(=O)[C@H](CCCCN)NC(=O)[C@H](CO)NC(=O)[C@@H](NC(=O)[C@H](CC(=O)O)NC(=O)[C@H](CO)NC(=O)[C@@H](NC(=O)[C@H](Cc1ccccc1)NC(=O)[C@@H](NC(=O)CNC(=O)[C@H](CCC(N)=O)NC(=O)C(C)(C)NC(=O)[C@@H](N)Cc1c[nH]cn1)[C@@H](C)O)[C@@H](C)O)C(C)C)C(C)C)C(=O)N[C@@H](CC(C)C)C(=O)N[C@@H](CCC(=O)O)C(=O)NC(C)(C)C(=O)N[C@@H](CCCCN)C(=O)O` [Peptide 183]: the pEC50 in test [1] (setting [3]) was 10.09; in test [2] (setting [3]), 10.62. Besides, the “% Relative Potency Ratio” value in test [2] (Table 6) amounted to 6.8.

Turning to `CC[C@H](C)[C@H](NC(=O)C(C)(C)NC(=O)[C@H](CCC(N)=O)NC(=O)[C@@H](NC(=O)[C@](C)(Cc1ccccc1)NC(=O)[C@H](CC(=O)O)NC(=O)[C@H](CCCCNC(=O)CCOCCOCCOCCOCCNC(=O)CC[C@H](NC(=O)CCCCCCCCCCCCCCCCCCC(=O)O)C(=O)O)NC(=O)[C@H](C)NC(=O)[C@H](C)NC(=O)[C@H](CCCNC(=N)N)NC(=O)[C@H](CO)NC(=O)[C@H](CC(=O)O)NC(=O)[C@H](CC(C)C)NC(=O)[C@](C)(Cc1ccccc1)NC(=O)[C@H](CCCCN)NC(=O)[C@H](CO)NC(=O)[C@@H](NC(=O)[C@H](CC(=O)O)NC(=O)[C@H](CO)NC(=O)[C@@H](NC(=O)[C@](C)(Cc1ccccc1)NC(=O)[C@H](CO)NC(=O)CNC(=O)[C@H](Cc1c[nH]cn1)NC(=O)C(C)(C)NC(=O)[C@@H](N)Cc1c[nH]cn1)[C@@H](C)O)C(C)C)C(C)C)C(=O)N[C@@H](C)C(=O)N[C@@H](CC(N)=O)C(=O)N[C@H](C(N)=O)[C@@H](C)O` [Peptide 267] (H-H[Aib]HGS[αMeF]TSDVSK[αMeF]LDSRAAK([PEG4-γGlu-C20 diacid])D[αMeF]VQ[Aib]IANT-NH2), the pEC50 in test [1] (setting [4]) was 9.89; in test [2] (setting [4]), 10.18. In test [2] (Table 7), the “% Relative Potency Ratio” value is 3.9.

On to `CCCCCCCCCCCCCCCC(=O)N[C@@H](CCC(=O)N[C@@H](CCC(=O)NCCOCCOCCC(=O)NCCOCCOCCC(=O)NCCCC[C@H](NC(=O)[C@H](CO)NC(=O)[C@H](CC(=O)O)NC(=O)[C@H](CC(C)C)NC(=O)[C@](C)(Cc1ccccc1)NC(=O)[C@H](CCCCN)NC(=O)[C@H](CO)NC(=O)[C@@H](NC(=O)[C@H](CC(=O)O)NC(=O)[C@H](CO)NC(=O)[C@@H](NC(=O)[C@](C)(Cc1ccccc1)NC(=O)[C@H](CO)NC(=O)CNC(=O)[C@H](CCC(N)=O)NC(=O)[C@H](CO)NC(=O)[C@@H](N)Cc1c[nH]cn1)[C@@H](C)O)C(C)C)C(=O)N[C@@H](C)C(=O)N[C@@H](C)C(=O)N[C@@H](CCC(N)=O)C(=O)N[C@@H](CC(=O)O)C(=O)N[C@@](C)(Cc1ccccc1)C(=O)N[C@H](C(=O)N[C@@H](CCC(N)=O)C(=O)NC(C)(C)C(=O)N[C@@H](CC(C)C)C(=O)N[C@@H](CCC(=O)O)C(=O)N[C@@H](C)C(=O)NCC(=O)NCC(N)=O)C(C)C)C(=O)O)C(=O)O` [Peptide 79] (H-HSQGS[αMeF]TSDVSK[αMeF]LDSK([PEG2-PEG2-γGlu-γGlu-Palmitoyl])AAQD[αMeF]VQ[Aib]LEAGG-NH2; N-terminus assumed), for which the pEC50 in test [1] (setting [3]) is 10.97; in test [2] (setting [3]), 11.76. The “% Relative Potency Ratio” value in test [2] (Table 6) came to 12.2.
